According to patent US8512708B2, “GP96 derived peptides” (Compugen Ltd., priority 2008, dated 2013):

How the values were obtained:
human PBMCs = test: Anti-CD3-induced cytokine release from human PBMCs (Luminex); format: cell-based; conditions: PBMCs treated with anti-CD3 antibody (1 μg/ml), 48 hours; peptide 30 μg/ml=6 μM (FIG. 2)
Experimental: Peptides were assayed at two concentrations (3 and 30 ug/mL) in duplicates. Cryopreserved PBMCs were drip-thaw and seeded at 1×10^4 cells/well in 140 μl of media per well. Cells were incubated for 1 hour at 37° C. at 5% CO2 and a peptide of the invention or Dexamethasone as a control, were added in 20 μl of medium. Cells were incubated for 30 minutes and anti-CD3 antibody (1 μg/ml) was added at the appropriate concentration in 40 μl of medium. Plates were incubated for 48 hours, spinned at 1200 rpm for 10 minutes and supernatants were collected and stored at −80° C. Cytokines' concentration was measured using a Luminex analyzer (IS100, Luminex Corporation) and bead-based reagents (Upstate Biotechnology).

A549 cells = format: cell-based, human; conditions: 48 hours, MTT, 0.3-90 μg/ml peptide
Experimental: (§1) A549 cells were seeded at 6000 cells/well in 200 μA of media (DMEM medium+5% FBS) in a 96 well plate and incubated over-night (O.N). Cells were starved in 100 μl of serum free medium (SFM) containing 0.1% FBS, O.N. All lyophilized peptides were dissolved in H2O (prewarmed to 50° C.) and hand-stirred, giving a final concentration of 1 mg/ml. Reconstituted peptides were added in concentrations of 0.3, 1, 3, 10, 30 or 90 μg/ml and the cells were incubated for 48 hours.
(§2) Cell proliferation was measured using MTT assay as follows: 20 μl of MTT solution ((3-[4,5-Dimethyl-2-thiazolyl]-2,5-diphenyl-2H-tetrazolium bromide, Sigma Cat#M5655, lot#085k5322, 1 gr was dissolved in 200 ml H2O and filtered, giving a final concentration of 5 mg/ml) were added to each well for 4 hrs, after which the medium was vacuumed and 100 μl of DMSO were added to each well. Absorbance was measured in an ELISA reader at 492 nm. The results are shown in FIG. 8, and depicted in percent relative to untreated cells (which was defined as 100).

THP-1 cells = test: LPS-induced TNF-α secretion from THP-1 cells (ELISA); format: cell-based, human; conditions: LPS 100 ng/ml, 4 hours
Experimental: THP-1 cells were seeded at 2×10^5 cells/ml in 100 μl of media (RPMI-1640 medium+10% FBS) in a 96 well plates. The reconstituted peptide at final concentrations of 20, 60, 180, 540, 1620, 4860 or 14580 nM were added to the relevant wells in a volume of 100 μl and LPS at a final concentration of 100 ng/ml (Sigma, Cat # L-6529, Lot #054K4022, stock concentration of 1 mg/ml) was added to the wells in a volume of 100 μl. Plates were incubated for 4 hours and then centrifuged 5 minutes at 4000 rpm. Conditioned medium (200 μl) was transferred to new plates and kept at −20° C. The concentration of TNF-α was measured using TNF-α ELISA (R&D Systems, Human TNF-alpha Quantikine ELISA Kit, Cat # STA00C).
THP-1 cells were seeded at 2×10^5 cells/ml in 100 μl of media (RPMI-1640 medium+10% FBS) in 96 well plates. The reconstituted peptide at final concentrations of 0.3, 1, 10, 30 or 60 μg/ml were added to the relevant wells in a volume of 100 μl and LPS at a final concentration of 100 ng/ml (Sigma, Cat # L-6529, Lot #054K4022, stock concentration of 1 mg/ml) was added to the wells in a volume of 100 Plates were incubated for 4 hours and then centrifuged 5 minutes at 4000 rpm. Conditioned medium (200 μl) was transferred to new plates and kept at −20° C. The concentration of TNF-α was measured using TNF-α ELISA (R&D Systems, Human TNF-alpha Quantikine ELISA Kit, Cat # STA00C).

MCF7 = test: Proliferation of MCF7 cells (MTT assay); format: cell-based, human; conditions: MCF7, 48 hours, 0.003-60 μg/ml peptide
Experimental: as §1, with “Cells” for “A549 cells”, “5000” for “6000”, “μl” for “μA”, “0.003, 0.009, 0.028, 0.084, 0.25, 0.76, 2.28, 6.66, 20 and 60” for “0.3, 1, 3, 10, 30 or 90”
as §2, with “assay:” for “assay as follows:”, “nm.” for “nm. The results are shown in FIG. 8, and depicted in percent relative to untreated cells (which was defined as 100).”

HCT116 = test: Proliferation of HCT116 cells (MTT assay); format: cell-based, human; conditions: HCT116, 48 hours, 0.003-60 μg/ml peptide
Experimental: as §1, with “Cells” for “A549 cells”, “5000” for “6000”, “μl” for “μA”, “0.003, 0.009, 0.028, 0.084, 0.25, 0.76, 2.28, 6.66, 20 and 60” for “0.3, 1, 3, 10, 30 or 90”
as §2, with “assay:” for “assay as follows:”, “nm.” for “nm. The results are shown in FIG. 8, and depicted in percent relative to untreated cells (which was defined as 100).”

HT29 = test: Proliferation of HT29 cells (MTT assay); format: cell-based, human; conditions: HT29, 48 hours, 0.003-60 μg/ml peptide
Experimental: as §1, with “Cells” for “A549 cells”, “5000” for “6000”, “μl” for “μA”, “0.003, 0.009, 0.028, 0.084, 0.25, 0.76, 2.28, 6.66, 20 and 60” for “0.3, 1, 3, 10, 30 or 90”
as §2, with “assay:” for “assay as follows:”, “nm.” for “nm. The results are shown in FIG. 8, and depicted in percent relative to untreated cells (which was defined as 100).”

SW480 = test: Proliferation of SW480 cells (MTT assay); format: cell-based, human; conditions: SW480, 48 hours, 0.003-60 μg/ml peptide
Experimental: as §1, with “Cells” for “A549 cells”, “5000” for “6000”, “μl” for “μA”, “0.003, 0.009, 0.028, 0.084, 0.25, 0.76, 2.28, 6.66, 20 and 60” for “0.3, 1, 3, 10, 30 or 90”
as §2, with “assay:” for “assay as follows:”, “nm.” for “nm. The results are shown in FIG. 8, and depicted in percent relative to untreated cells (which was defined as 100).”

Compound	decrease of IL-1α (human PBMCs) [%]	decrease of IL-1β (human PBMCs) [%]	decrease of IL-2 release (human PBMCs) [%]	decrease of IL-12p40 (human PBMCs) [%]	decrease of IL-12p70 (human PBMCs) [%]	decrease of TNFα (human PBMCs)	inhibition of GM-CSF release (human PBMCs)	inhibition of proliferation, dose dependence (A549 cells)	inhibition of LPS-induced TNF-α secretion (THP-1 cells; 30 μg/ml peptide) [%]	inhibition of proliferation, dose dependence (MCF7)	inhibition of LPS-induced TNF-α secretion (THP-1 cells; 10 μg/ml peptide) [%]	inhibition of proliferation, dose dependence (HCT116)	inhibition of proliferation, dose dependence (HT29)	inhibition of proliferation, dose dependence (SW480)
IYVWSSKTETVEEPMEEEEAAKEEKEESDDEA (Ac-IYVWSSKTETVEEPMEEEEAAKEEKEESDDEA-NH2) [CGEN-GP3]	30	60	70	40	70	approximately 30%	no effect							
CC[C@H](C)[C@H](NC(=O)[C@H](CCCCN)NC(=O)[C@H](CCCCN)NC(=O)[C@@H](NC(=O)[C@H](CCSC)NC(=O)[C@H](CC(=O)O)NC(=O)[C@H](CC(C)C)NC(=O)[C@@H](NC(=O)[C@H](CCCCN)NC(=O)[C@H](CCCNC(=N)N)NC(=O)[C@@H](NC(=O)[C@H](CC(C)C)NC(=O)[C@H](CCCCN)NC(=O)[C@H](CCCCN)NC(=O)[C@H](CCCNC(=N)N)NC(=O)[C@@H](NC(=O)[C@@H](NC(=O)[C@H](CCCCN)NC(=O)[C@H](CC(C)C)NC(=O)[C@H](CC(C)C)NC(=O)[C@H](CCCCN)NC(=O)[C@H](Cc1c[nH]cn1)NC(=O)[C@H](CCC(N)=O)NC(=O)[C@H](CCC(N)=O)NC(=O)[C@H](CC(C)C)NC(=O)[C@@H](NC(C)=O)[C@@H](C)O)C(C)C)[C@@H](C)CC)C(C)C)[C@@H](C)O)[C@@H](C)CC)C(=O)N[C@@H](C)C(=O)N[C@@H](CC(=O)O)C(=O)N[C@@H](CC(=O)O)C(=O)N[C@@H](CCCCN)C(=O)N[C@@H](Cc1ccc(O)cc1)C(N)=O [CGEN-GP4]								dose-dependent	100					
Ac-HKLLKVIRKKLVRKTLDMIKKIADDKYNDTFWKEF-NH2 [CGEN-GP5]								dose-dependent		dose-dependent	100	dose-dependent	dose-dependent	dose-dependent
